Experimental data: US12369582B2, “Pyridyloxyacetic acid compound and use of same” (SUMITOMO CHEMICAL COMPANY, LIMITED, priority 2019, dated 2025)

Tested on: Phytophthora capsici
Assay: Titer plate growth inhibition test on Phytophthora capsici zoospores in potato dextrose broth
Format: cell-based
Conditions: final concentration 100 ppm; cultured at 27° C. for 3 days; absorbance at 600 nm vs non-treated section
Description: Next, test examples are shown. A non-treated in Test Example 1 means a section in which the same operation as in a treated section is performed except that Compound A is not used. After dispensing 1 μL of a dimethyl sulfoxide solution containing a predetermined concentration of Compound A into wells of a titer plate (96 wells), 150 μL of a potato dextrose broth containing zoospores of Phytophthora capsici was dispensed, and the mixture was prepared so as to have a final concentration of Compound A of 100 ppm and defined as a treated section. In addition, a non-treated section was prepared in other wells. The plate was cultured at 27° C. for 3 days to proliferate Phytophthora capsici […], and then the absorbance at 600 nm of each well of the titer plate was measured and defined as the growth degree of Phytophthora capsici. Based on the growth degree, the efficacy was calculated using “Formula 1”. Efficacy(%)=100×(X−Y)/X “Formula 1” • X: Growth degree of bacteria in non-treated section • Y: Growth degree of bacteria in treated section A test was performed according to Test Example 1 using sodium salt monohydrate of Compound A in place of Compound A. As a result, the efficacy was 90%. A test was performed according to Test Example 1 using Compound B in place of Compound A. As a result, the efficacy was 64%.

Row | SMILES | Efficacy
1 | O=C(O)COc1ncccc1Oc1ccc(F)cc1Cl [Compound A, 2-{[3-(2-Chloro-4-fluorophenoxy)pyridin-2-yl]oxy}acetic acid] | 100%
2 | CCOC(=O)COc1ncccc1Oc1ccc(F)cc1Cl [Compound B, 2-{[3-(2-chloro-4-fluorophenoxy)pyridin-2-yl]oxy}acetic acid ethyl ester] | 64%
